For orientation: IC50 means the midpoint of a concentration-inhibition curve.

Where two headings read alike, the source gives them in different places.

The record followed here is US12653894B2, “Degradation of FAK or FAK and ALK by conjugation of FAK and ALK inhibitors with E3 ligase ligands and methods of use” (DANA-FARBER CANCER INSTITUTE, INC., priority 2018, dated 2026).

Assay [1] deals with T1, FAK (Homo sapiens, UniProt Q05397). The assay is described as follows: FAK degradation by immunoblot in PA-TU-8988T cells. On the set-up: endogenous in cells; host or cells: PA-TU-8988T. In kind it is cell-based. The note with it: for Degradation of FAK protein (in words): 0.1 nM to 1000 nM; for Degradation of FAK protein (in words) / Concentration at which degradation of FAK protein is evident / Concentration of maximal degradation of FAK protein / Concentration giving modest degradation of FAK protein: immunoblot; for inhibition at 0.01 µM / inhibition at 0.1 µM: PaTu 8988t; for inhibition at 0.01 µM: read-out: Degradation at 10 nM; for inhibition at 0.1 µM: read-out: Degradation at 100 nM. On the procedure:
(§1) Immunoblotting for FAK was performed to evaluate changes in protein levels upon FAK degrader treatment. All samples were run with equal total protein content and immunoblotting was performed using antibodies that detect total FAK protein as well as GAPDH or α-Tubulin as a loading control. Fluorescently labelled infrared secondary antibodies that enable detection using an Odyssey® CLx Imager was employed to evaluate protein levels.
FAK degraders were evaluated in immunoblot assays to determine the effective dose required to achieve FAK protein loss. Immunoblots for FAK protein were normalized relative to the loading control and percent degradation was evaluated compared to DMSO treatment.

The target of assay [2] is T1, FAK. The experiment in a line: FAK degradation by immunoblot in H3122 cells. It counts as cell-based. On the set-up: endogenous in cells; host or cells: H3122. The note with it: 10 nM to 1000 nM, 16 hours (compound 10) or 24 hours (compounds 1, 9). A general note: Immunoblotting shows a protein as a band on a membrane.
The target in assay [3] is T2, ALK (Homo sapiens, UniProt Q9UM73). The assay is described as follows: ALK degradation by immunoblot in H3122 cells. In kind it is cell-based. Further details: endogenous in cells; host or cells: H3122; the other entry of the earlier key: EML4 (Q9HC35, Echinoderm microtubule-associated protein-like 4). The note with it: 10 nM to 1000 nM, 16 hours (compound 10) or 24 hours (compounds 1, 9).
Target sequence in this assay (Q9UM73 with tags, fused parts or gaps): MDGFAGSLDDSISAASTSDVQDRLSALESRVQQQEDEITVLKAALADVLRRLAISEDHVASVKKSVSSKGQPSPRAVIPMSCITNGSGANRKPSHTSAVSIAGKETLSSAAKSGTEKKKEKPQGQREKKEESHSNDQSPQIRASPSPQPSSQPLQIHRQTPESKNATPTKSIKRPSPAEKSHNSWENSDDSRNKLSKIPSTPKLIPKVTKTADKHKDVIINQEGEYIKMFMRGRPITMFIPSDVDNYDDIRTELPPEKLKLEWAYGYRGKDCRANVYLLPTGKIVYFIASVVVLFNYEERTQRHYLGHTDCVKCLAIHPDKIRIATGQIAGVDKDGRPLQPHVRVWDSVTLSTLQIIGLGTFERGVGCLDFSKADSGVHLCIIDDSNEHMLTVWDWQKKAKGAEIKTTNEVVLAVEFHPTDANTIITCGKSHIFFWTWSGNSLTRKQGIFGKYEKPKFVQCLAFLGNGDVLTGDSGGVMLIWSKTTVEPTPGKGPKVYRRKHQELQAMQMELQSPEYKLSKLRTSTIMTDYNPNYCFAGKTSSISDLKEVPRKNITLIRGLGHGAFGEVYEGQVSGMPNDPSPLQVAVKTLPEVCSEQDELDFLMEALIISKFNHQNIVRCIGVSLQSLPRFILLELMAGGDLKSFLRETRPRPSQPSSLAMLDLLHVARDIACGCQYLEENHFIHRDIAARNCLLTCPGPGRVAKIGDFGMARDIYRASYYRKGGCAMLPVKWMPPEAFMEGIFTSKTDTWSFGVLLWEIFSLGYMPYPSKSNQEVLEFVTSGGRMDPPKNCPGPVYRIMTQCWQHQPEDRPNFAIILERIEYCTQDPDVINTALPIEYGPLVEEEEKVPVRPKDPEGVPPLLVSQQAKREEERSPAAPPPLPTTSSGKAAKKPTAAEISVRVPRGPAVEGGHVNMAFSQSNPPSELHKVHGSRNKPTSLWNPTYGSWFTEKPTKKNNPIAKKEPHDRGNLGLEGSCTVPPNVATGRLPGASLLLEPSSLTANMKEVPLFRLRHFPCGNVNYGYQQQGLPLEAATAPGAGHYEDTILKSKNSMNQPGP
Target sequence in this assay (Q96SW2 whole entry partner): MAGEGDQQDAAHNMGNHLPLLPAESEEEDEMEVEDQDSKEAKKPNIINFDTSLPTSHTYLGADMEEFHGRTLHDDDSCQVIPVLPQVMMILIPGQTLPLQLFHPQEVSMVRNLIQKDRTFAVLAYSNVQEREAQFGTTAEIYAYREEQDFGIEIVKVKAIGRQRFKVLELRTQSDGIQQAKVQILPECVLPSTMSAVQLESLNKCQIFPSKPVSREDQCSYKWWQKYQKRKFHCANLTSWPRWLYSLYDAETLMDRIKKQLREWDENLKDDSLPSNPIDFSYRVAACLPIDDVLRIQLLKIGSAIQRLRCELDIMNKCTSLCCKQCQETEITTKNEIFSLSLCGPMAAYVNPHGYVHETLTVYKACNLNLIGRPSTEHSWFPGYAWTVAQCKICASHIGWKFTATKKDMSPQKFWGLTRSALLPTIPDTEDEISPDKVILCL

Assay [4] has as its target T1, FAK. The experiment in a line: Rescue of compound 9-induced FAK degradation in PA-TU-8988T cells after pre-treatment. It counts as cell-based. On the set-up: endogenous in cells; host or cells: PA-TU-8988T. The note with it: pre-treatment 2 hours (0.5 μM carfilzomib, 1.0 μM MLN4924, 10 μM lenalidomide, 10 μM compound 13), then 10 nM compound 9 for 4 hours. As for the experimental part: as §1, with “PA-TU-8988T cells were treated with FAK degraders or indicated inhibitors for four hours at the indicated doses. After four hours, PA-TU-8988T cells were lysed in radioimmunoprecipitation assay (RIPA) buffer (Thermo Scientific™) on ice for 60 minutes and lysates were clarified by centrifugation. Immunoblotting” for “Immunoblotting”

Assay [5] deals with T2, ALK. The assay is described as follows: In vitro kinase assay (Life Technologies), ALK. On the set-up: purchased Life Technologies. Particulars: ATP concentration = Km, duplicate; read-out: Biochemical IC50 ALK. On the procedure:
(§2) In vitro kinase assays with inventive compound 13 and VS-4718 were performed by Life Technologies™ in duplicate at an ATP concentration=Km for each indicated kinase. The results are summarized in Table 2 and indicate that inventive compound 13 maintained potent FAK activity, with improved activity on ALK as compared to VS-4718.
Target sequence in this assay (Q9UM73 19-1620): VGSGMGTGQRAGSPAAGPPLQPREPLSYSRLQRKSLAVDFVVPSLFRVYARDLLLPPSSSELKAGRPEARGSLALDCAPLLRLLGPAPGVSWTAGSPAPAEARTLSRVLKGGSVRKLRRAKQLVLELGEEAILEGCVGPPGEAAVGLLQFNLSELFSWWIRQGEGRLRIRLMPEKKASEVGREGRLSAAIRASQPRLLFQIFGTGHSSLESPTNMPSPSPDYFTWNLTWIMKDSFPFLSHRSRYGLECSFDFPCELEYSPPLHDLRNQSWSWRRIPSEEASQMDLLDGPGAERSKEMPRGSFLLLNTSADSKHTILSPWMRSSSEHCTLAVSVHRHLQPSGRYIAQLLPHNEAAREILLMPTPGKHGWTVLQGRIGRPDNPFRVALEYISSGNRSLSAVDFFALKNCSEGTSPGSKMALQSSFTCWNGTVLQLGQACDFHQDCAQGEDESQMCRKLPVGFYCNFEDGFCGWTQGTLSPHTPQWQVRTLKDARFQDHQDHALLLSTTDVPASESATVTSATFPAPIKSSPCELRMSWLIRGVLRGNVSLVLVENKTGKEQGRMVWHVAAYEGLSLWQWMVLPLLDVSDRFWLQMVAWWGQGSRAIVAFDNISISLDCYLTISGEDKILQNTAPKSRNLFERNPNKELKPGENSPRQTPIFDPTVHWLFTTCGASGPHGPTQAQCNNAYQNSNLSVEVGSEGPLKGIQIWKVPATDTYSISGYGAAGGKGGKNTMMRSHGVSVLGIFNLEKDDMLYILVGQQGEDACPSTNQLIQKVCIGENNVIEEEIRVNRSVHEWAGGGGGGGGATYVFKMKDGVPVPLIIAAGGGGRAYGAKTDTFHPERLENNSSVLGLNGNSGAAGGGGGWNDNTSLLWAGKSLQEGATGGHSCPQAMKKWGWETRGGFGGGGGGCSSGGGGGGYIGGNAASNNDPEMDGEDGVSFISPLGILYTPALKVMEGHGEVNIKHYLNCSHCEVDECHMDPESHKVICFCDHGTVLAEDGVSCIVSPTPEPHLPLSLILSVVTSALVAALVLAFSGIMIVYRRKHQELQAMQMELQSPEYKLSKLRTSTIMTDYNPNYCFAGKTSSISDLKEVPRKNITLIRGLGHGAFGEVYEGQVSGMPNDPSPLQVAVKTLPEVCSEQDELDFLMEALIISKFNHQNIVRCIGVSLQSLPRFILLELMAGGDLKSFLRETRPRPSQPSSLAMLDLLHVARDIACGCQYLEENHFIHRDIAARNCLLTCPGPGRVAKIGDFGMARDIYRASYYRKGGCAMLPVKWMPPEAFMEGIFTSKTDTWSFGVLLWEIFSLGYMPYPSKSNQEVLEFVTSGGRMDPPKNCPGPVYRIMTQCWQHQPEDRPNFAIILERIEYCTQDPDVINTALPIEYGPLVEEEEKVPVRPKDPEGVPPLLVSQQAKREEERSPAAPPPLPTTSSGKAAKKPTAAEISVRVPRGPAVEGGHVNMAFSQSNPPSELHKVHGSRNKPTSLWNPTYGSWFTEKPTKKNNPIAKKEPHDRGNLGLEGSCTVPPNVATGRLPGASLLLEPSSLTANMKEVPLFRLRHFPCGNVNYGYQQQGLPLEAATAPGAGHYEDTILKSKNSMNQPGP

Assay [6] addresses T1, FAK. The experiment in a line: In vitro kinase assay (Life Technologies), FAK. Particulars: ATP concentration = Km, duplicate; read-out: Biochemical IC50 FAK. On the procedure: as §2
The mark [7] stands for this setting: total FAK protein, PA-TU-8988T cells, 10 nM, 4 hours, vs DMSO.
Setting [8] is: total FAK protein, PA-TU-8988T cells, 100 nM, 4 hours, vs DMSO.

T1 sequence (Q05397 whole entry): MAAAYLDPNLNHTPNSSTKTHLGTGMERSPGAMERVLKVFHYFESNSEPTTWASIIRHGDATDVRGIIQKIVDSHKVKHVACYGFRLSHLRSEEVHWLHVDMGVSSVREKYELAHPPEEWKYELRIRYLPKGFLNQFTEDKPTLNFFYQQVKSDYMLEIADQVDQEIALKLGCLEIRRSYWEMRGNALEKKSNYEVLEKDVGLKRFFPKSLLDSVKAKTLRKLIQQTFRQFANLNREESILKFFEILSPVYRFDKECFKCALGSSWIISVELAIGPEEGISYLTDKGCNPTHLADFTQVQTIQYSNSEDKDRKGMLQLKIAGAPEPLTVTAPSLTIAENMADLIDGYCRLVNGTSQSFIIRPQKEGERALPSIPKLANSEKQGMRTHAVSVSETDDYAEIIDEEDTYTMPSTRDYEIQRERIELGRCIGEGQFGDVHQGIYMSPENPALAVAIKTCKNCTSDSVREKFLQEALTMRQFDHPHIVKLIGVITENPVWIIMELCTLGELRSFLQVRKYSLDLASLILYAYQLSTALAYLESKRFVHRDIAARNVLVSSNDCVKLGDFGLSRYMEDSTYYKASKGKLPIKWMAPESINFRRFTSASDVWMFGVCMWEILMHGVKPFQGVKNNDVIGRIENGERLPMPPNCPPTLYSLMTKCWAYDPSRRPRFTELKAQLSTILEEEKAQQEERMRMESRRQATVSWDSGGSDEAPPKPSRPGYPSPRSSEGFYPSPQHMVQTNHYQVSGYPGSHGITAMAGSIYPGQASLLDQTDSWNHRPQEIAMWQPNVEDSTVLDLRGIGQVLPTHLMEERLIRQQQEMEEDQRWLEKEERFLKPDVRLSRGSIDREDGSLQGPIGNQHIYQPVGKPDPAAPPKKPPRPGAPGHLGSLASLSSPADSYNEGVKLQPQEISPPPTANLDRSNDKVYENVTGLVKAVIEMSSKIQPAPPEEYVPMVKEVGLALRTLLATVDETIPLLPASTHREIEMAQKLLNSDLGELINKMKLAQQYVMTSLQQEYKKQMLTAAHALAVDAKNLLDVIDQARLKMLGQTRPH

Consider `CNC(=O)c1ccccc1Nc1cc(Nc2ccc(N3CCN(CCCCCCNC(=O)COc4cccc5c4C(=O)N(C4CCC(=O)NC4=O)C5=O)CC3)cc2OC)ncc1C(F)(F)F` (stereo not drawn) [Compound 1, 2-((2-((4-(4-(6-(2-((2-(2,6-dioxopiperidin-3-yl)-1,3-dioxoisoindolin-4-yl)oxy)acetamido)hexyl)piperazin-1-yl)-2-methoxyphenyl)amino)-5-(trifluoromethyl)pyridin-4-yl)amino)-N-methylbenzamide], for which, on FAK [1] (PA-TU-8988T cells, 4 hours), the “Degradation of FAK protein (in words)” value is “rapid and pronounced degradation of FAK protein”; the “Concentration at which degradation of FAK protein is evident” value (shortened to “Concentration at which degradation”) is 1 nM; the “Concentration of maximal degradation of FAK protein” value is listed as 10 nM. Also, the inhibition at 0.01 µM on FAK [1] (setting [7]) is 85 to 100%. In addition, on FAK [1] (setting [8]), the inhibition at 0.1 µM fell in the range of 85 to 100%. Further, at FAK [2], the “Degradation of FAK protein in H3122 cells (in words)” value is “pronounced degradation of FAK protein”.

Turning to `CNC(=O)c1ccccc1Nc1cc(Nc2ccc(N3CCN(CCCCCCNC(=O)COc4cccc5c4C(=O)N(C4CCC(=O)N(C)C4=O)C5=O)CC3)cc2OC)ncc1C(F)(F)F` (stereo not drawn) [Compound 2, 2-((2-((2-methoxy-4-(4-(6-(2-((2-(1-methyl-2,6-dioxopiperidin-3-yl)-1,3-dioxoisoindolin-4-yl)oxy)acetamido)hexyl)piperazin-1-yl)phenyl)amino)-5-(trifluoromethyl)pyridin-4-yl)amino)-N-methylbenzamide], the “Degradation of FAK protein (in words)” value on FAK [1] (PA-TU-8988T cells, 4 hours) is recorded as “did not induce degradation of FAK protein”. Moreover, on FAK [1] (setting [7]), the inhibition at 0.01 µM was in the range of 0 to 24%. At FAK [1] (setting [8]), the inhibition at 0.1 µM is 0 to 24%.

As to `CNC(=O)c1ccccc1Nc1cc(Nc2ccc(N3CCN(CCOCCOCCOCCNC(=O)COc4cccc5c4C(=O)N(C4CCC(=O)NC4=O)C5=O)CC3)cc2OC)ncc1C(F)(F)F` (stereo not drawn) [Compound 3, 2-((2-((4-(4-(1-((2-(2,6-dioxopiperidin-3-yl)-1,3-dioxoisoindolin-4-yl)oxy)-2-oxo-6,9,12-trioxa-3-azatetradecan-14-yl)piperazin-1-yl)-2-methoxyphenyl)amino)-5-(trifluoromethyl)pyridin-4-yl)amino)-N-methylbenzamide], on FAK [1] (PA-TU-8988T cells, 4 hours), the “Concentration giving modest degradation of FAK protein” value was 100 nM. In addition, at FAK [1] (setting [7]), the inhibition at 0.01 µM is 50 to 69%. Moreover, the inhibition at 0.1 µM on FAK [1] (setting [8]) lay within 85 to 100%.

Regarding `CNC(=O)c1ccccc1Nc1cc(Nc2ccc(N3CCN(CCOCCOCCNC(=O)CNc4cccc5c4C(=O)N(C4CCC(=O)NC4=O)C5=O)CC3)cc2OC)ncc1C(F)(F)F` (stereo not drawn) [Compound 4, 2-((2-((4-(4-(2-(2-(2-(2-((2-(2,6-dioxopiperidin-3-yl)-1,3-dioxoisoindolin-4-yl)amino)acetamido)ethoxy)ethoxy)ethyl)piperazin-1-yl)-2-methoxyphenyl)amino)-5-(trifluoromethyl)pyridin-4-yl)amino)-N-methylbenzamide], at FAK [1] (PA-TU-8988T cells, 4 hours), the “Concentration at which degradation” value is on record as 10 nM and the “Concentration of maximal degradation of FAK protein” value was 100 nM. For the same compound, the inhibition at 0.01 µM on FAK [1] (setting [7]) lay in the range of 70 to 84%. In addition, on FAK [1] (setting [8]), the inhibition at 0.1 µM fell in the range of 85 to 100%.

Turning to `CNC(=O)c1ccccc1Nc1cc(Nc2ccc(N3CCN(CCCCCCCCNC(=O)CNc4cccc5c4C(=O)N(C4CCC(=O)NC4=O)C5=O)CC3)cc2OC)ncc1C(F)(F)F` (stereo not drawn) [Compound 5, 2-((2-((4-(4-(8-(2-((2-(2,6-dioxopiperidin-3-yl)-1,3-dioxoisoindolin-4-yl)amino)acetamido)octyl)piperazin-1-yl)-2-methoxyphenyl)amino)-5-(trifluoromethyl)pyridin-4-yl)amino)-N-methylbenzamide], on FAK [1] (PA-TU-8988T cells, 4 hours), the “Concentration at which degradation” value was 1 nM and the “Concentration of maximal degradation of FAK protein” value stood at 10 nM.

With `CNC(=O)c1ccccc1Nc1cc(Nc2ccc(N3CCN(CCCCCCCCNc4cccc5c4C(=O)N(C4CCC(=O)NC4=O)C5=O)CC3)cc2OC)ncc1C(F)(F)F` (stereo not drawn) [Compound 6, 2-((2-((4-(4-(8-((2-(2,6-dioxopiperidin-3-yl)-1,3-dioxoisoindolin-4-yl)amino)octyl)piperazin-1-yl)-2-methoxyphenyl)amino)-5-(trifluoromethyl)pyridin-4-yl)amino)-N-methylbenzamide], at FAK [1] (PA-TU-8988T cells, 4 hours), the “Concentration at which degradation” value is on record as 10 nM and the “Concentration of maximal degradation of FAK protein” value is on record as 100 nM. For the same compound, the inhibition at 0.01 µM at FAK [1] (setting [7]) lay within 85 to 100%. Besides, the inhibition at 0.1 µM at FAK [1] (setting [8]) fell in the range of 85 to 100%.

With `CS(=O)(=O)c1cccc(CNc2nc(Nc3ccc(C(=O)NCCCCCCCCNC(=O)COc4cccc5c4C(=O)N(C4CCC(=O)NC4=O)C5=O)cc3)ncc2C(F)(F)F)c1` (stereo not drawn) [Compound 7, N-(8-(2-((2-(2,6-dioxopiperidin-3-yl)-1,3-dioxoisoindolin-4-yl)oxy)acetamido)octyl)-4-((4-((3-(methylsulfonyl)benzyl)amino)-5-(trifluoromethyl)pyrimidin-2-yl)amino)benzamide], at FAK [1] (PA-TU-8988T cells, 4 hours), the “Concentration at which degradation” value is 10 nM and the “Concentration of maximal degradation of FAK protein” value is reported as 100 nM. Besides, the inhibition at 0.01 µM at FAK [1] (setting [7]) was in the range of 25 to 49%. At FAK [1] (setting [8]), the inhibition at 0.1 µM fell in the range of 85 to 100%.

In the case of `CS(=O)(=O)c1cccc(CNc2nc(Nc3ccc(C(=O)N4CCN(CCCCCNC(=O)COc5cccc6c5C(=O)N(C5CCC(=O)NC5=O)C6=O)CC4)cc3)ncc2C(F)(F)F)c1` (stereo not drawn) [Compound 8, 2-((2-(2,6-dioxopiperidin-3-yl)-1,3-dioxoisoindolin-4-yl)oxy)-N-(5-(4-(4-((4-((3-(methylsulfonyl)benzyl)amino)-5-(trifluoromethyl)pyrimidin-2-yl)amino)benzoyl)piperazin-1-yl)pentyl)acetamide], on FAK [1] (PA-TU-8988T cells, 4 hours), the “Concentration giving modest degradation of FAK protein” value is listed as 10 nM and the “Concentration of maximal degradation of FAK protein” value was determined as 100 nM. On FAK [1] (4 h), the inhibition at 0.01 µM was in the range of 0 to 24% and the inhibition at 0.1 µM was 25 to 49%.

With `CNC(=O)c1ccccc1Nc1nc(Nc2cc(C)c(C3CCN(CCCCCCNC(=O)COc4cccc5c4C(=O)N(C4CCC(=O)NC4=O)C5=O)CC3)cc2OC(C)C)ncc1C(F)(F)F` (stereo not drawn) [Compound 10, 2-((2-((4-(1-(6-(2-((2-(2,6-dioxopiperidin-3-yl)-1,3-dioxoisoindolin-4-yl)oxy)acetamido)hexyl)piperidin-4-yl)-2-isopropoxy-5-methylphenyl)amino)-5-(trifluoromethyl)pyrimidin-4-yl)amino)-N-methylbenzamide], at FAK [2], the “Degradation of FAK protein in H3122 cells (in words)” value is on record as “pronounced degradation of FAK protein”. Further, the “Degradation of ALK protein in H3122 cells (in words)” value on ALK [3] is on record as “degradation of ALK protein”.

Regarding `NS(=O)(=O)OC[C@@H]1C[C@@H](n2ccc3c(N[C@H]4CCc5ccccc54)ncnc32)C[C@@H]1O` [MLN4924], the “Rescue of FAK degradation induced by compound 9” value (from here on “Rescue”) on FAK [4] is “rescued the degradation induced by compound 9”.

Consider `CNC(=O)c1ccccc1Nc1cc(Nc2ccc(N3CCOCC3)cc2OC)ncc1C(F)(F)F` [VS-4718, reference compound], for which the figures for the IC50 on ALK [5] and at FAK [6] were 41.1 nM and 20 nM, respectively. Further, the “Degradation of FAK protein (in words)” value at FAK [1] (PA-TU-8988T cells, 4 hours) is “did not induce degradation of FAK protein”.

Take `CC(C)C[C@H](NC(=O)[C@H](CCc1ccccc1)NC(=O)CN1CCOCC1)C(=O)N[C@@H](Cc1ccccc1)C(=O)N[C@@H](CC(C)C)C(=O)[C@@]1(C)CO1` [carfilzomib]: the “Rescue” value on FAK [4] was “rescued the degradation induced by compound 9”.

As for `Nc1cccc2c1CN(C1CCC(=O)NC1=O)C2=O` (stereo not drawn) [lenalidomide], at FAK [4], the “Rescue” value is given as “rescued the degradation induced by compound 9”.

With PF-573228 [reference compound], the “Degradation of FAK protein (in words)” value on FAK [1] (PA-TU-8988T cells, 4 hours) is “did not induce degradation of FAK protein”.
